This is an account of results in ChEMBL document CHEMBL5236650, “Nonhydrolyzable d‑phenylalanine-benzoxazole derivatives retain antitubercular activity” (Bioorg Med Chem Lett, 2023).

Series [1] relates to Mycobacterium tuberculosis. The experiment in a line: Antitubercular activity against Mycobacterium tuberculosis H37Rv ATCC 27294 cultured in 7H9/ADC/Tw media assessed as inhibition of bacterial growth incubated for 7 days. To be noted: H37Rv ATCC 27294, 168 h, time 7 day. It is filed as functional.
Series [2] has as its system Mycobacterium tuberculosis. The experiment in a line: Antitubercular activity against Mycobacterium tuberculosis H37Rv ATCC 27294 cultured in GAST/Fe media assessed as inhibition of bacterial growth incubated for 7 days. The settings on record: H37Rv ATCC 27294, 168 h, time 7 day. In kind it is functional.
Series [3] can be described thus: Stability in mouse plasma assessed as half life. In kind it is ADME, cell-free.
Series [4] can be described thus: Protein binding in mouse plasma assessed as free fraction. In kind it is ADME, cell-free.
Series [5] is described as follows: Drug metabolism in mouse plasma assessed as 2-(4-methoxyphenyl)benzo[d]oxazol-5-amine formation. It is filed as ADME, cell-free.
Series [6] has as its system Mycobacterium tuberculosis. The experiment in a line: Antitubercular activity against Mycobacterium tuberculosis H37Rv ATCC 27294 cultured in 7H9/DPPC/casitone/Tx media assessed as inhibition of bacterial growth incubated for 7 days. In kind it is functional. To be noted: H37Rv ATCC 27294, 168 h, time 7 day.

≈ marks a conversion by molar mass, not a printed value.

With `COc1ccc(-c2nc3cc(N)ccc3o2)cc1`, the MIC in series [1] was not below 12.5 µM.

`N[C@@H](CC(=O)Nc1ccc2oc(-c3ccc(O)cc3)nc2c1)Cc1ccccc1`: the MIC in series [2] and in series [1] was 19 µM (≈ 7.36 µg/mL) in each case.

`N[C@H](Cc1ccccc1)C(=O)Nc1ccc2oc(-c3ccc(O)cc3)nc2c1`: the MIC is 2.3 µM (≈ 0.859 µg/mL) in series [2] and 1.2 µM (≈ 0.448 µg/mL) in series [1].

With `C#CCOc1ccc(-c2nc3cc(NC(=O)[C@H](N)Cc4ccccc4)ccc3o2)cc1`, the half-life in series [3] was 5 h. Besides, the minimal inhibitory concentration (MIC) in series [1] came out at 1.2 µM (≈ 0.494 µg/mL). Moreover, in series [4], the fraction unbound was less than 0.004.

Take `COc1ccc(-c2nc3cc(NC(=O)[C@H](N)Cc4ccccc4)ccc3o2)cc1`: the half-life in series [3] was 0.417 h. For the same compound, the MIC in series [2] and in series [1] was 1.56 µM (≈ 0.604 µg/mL) throughout. Besides, the Drug metabolism result in series [5] is given as “Metabolite_Detected”.

With `COc1ccc(Cc2nc3cc(NC(=O)[C@H](N)Cc4ccccc4)ccc3o2)cc1`, the MIC in series [2] and in series [1] was 3.13 µM (≈ 1.26 µg/mL) in each case.

`COc1ccc(-c2nc3cc(C(=O)NC[C@H](N)Cc4ccccc4)ccc3o2)cc1`: the half-life in series [3] was more than 4 h. In addition, the MIC in series [6] and in series [1] was 6.25 µM (≈ 2.51 µg/mL) throughout. For the same compound, the Fu in series [4] was determined as 1.2%.

Regarding `N[C@H](CCc1ccccc1)C(=O)Nc1ccc2oc(-c3ccc(O)cc3)nc2c1`, the MIC in series [2] and in series [1] was 3.13 µM (≈ 1.21 µg/mL) throughout.

Consider `N[C@H](Cc1ccccc1)C(=O)Nc1ccc2ocnc2c1`, for which the values for the MIC in series [2] and in series [1] were 25 µM (≈ 7.03 µg/mL) and more than 50 µM, respectively.

On to `N[C@H](Cc1ccccc1)C(=O)Nc1ccc2oc(-c3ccc(OC(F)(F)F)cc3)nc2c1`, for which the MIC in series [2] and in series [1] was 3.13 µM (≈ 1.38 µg/mL) throughout.

On to `CCOC(=O)COc1ccc(-c2nc3cc(NC(=O)[C@H](N)Cc4ccccc4)ccc3o2)cc1`, for which the MIC in series [2] worked out at 2.3 µM (≈ 1.06 µg/mL); in series [1], 3.13 µM (≈ 1.44 µg/mL).

As for `COc1ccc(-c2nc3cc(NC(=S)[C@H](N)Cc4ccccc4)ccc3o2)cc1`, the MIC in series [2] was found to be 19 µM (≈ 7.67 µg/mL); in series [1], 37 µM (≈ 14.9 µg/mL).

In the case of `COc1ccc(-c2nc3cc(-n4cc([C@H](N)Cc5ccccc5)nn4)ccc3o2)cc1`, the half-life in series [3] was more than 4 h. Further, the MIC in series [2] and in series [1] was 6.25 µM (≈ 2.57 µg/mL) each time. Further, the Fu in series [4] is recorded as 0.65%.

With `COc1ccc(-c2nc3cc(NC[C@H](N)Cc4ccccc4)ccc3o2)cc1`, in series [3], the half-life is more than 4 h. Moreover, the MIC in series [2] turned out to be 9.4 µM (≈ 3.51 µg/mL); in series [1], 12.5 µM (≈ 4.67 µg/mL). For the same compound, in series [4], the Fu is on record as less than 0.1%.

With `COc1ccc(-c2nc3cc(NC(=O)[C@H](N)[C@@H](O)c4ccccc4)ccc3o2)cc1`, the results for the MIC in series [2] and in series [1] were 25 µM (≈ 10.1 µg/mL) and more than 50 µM, respectively.

For orientation: MIC means the smallest concentration in the dilution series that meets the test's criterion for growth inhibition. What is called half-life is how long it takes for the measured level to halve. As usually defined, the fraction unbound is free concentration divided by total concentration.
